Patent US20230113037A1 (Bayer Aktiengesellschaft, priority 2019, published 2023)

target: T1, AHR (Mus musculus, UniProt P30561); test: In vitro assay 3: antagonism in mouse cell line (AHR transactivation, firefly luciferase reporter, kynurenic acid prestimulated); type: cell-based; details: Hepa 1c1c7 cells, 200 μM kynurenic acid, 20 hours, firefly luciferase reporter, read-out: AHR Antagonism Mouse IC50
T1 sequence (P30561 1-848 P471L/N533S/M589L): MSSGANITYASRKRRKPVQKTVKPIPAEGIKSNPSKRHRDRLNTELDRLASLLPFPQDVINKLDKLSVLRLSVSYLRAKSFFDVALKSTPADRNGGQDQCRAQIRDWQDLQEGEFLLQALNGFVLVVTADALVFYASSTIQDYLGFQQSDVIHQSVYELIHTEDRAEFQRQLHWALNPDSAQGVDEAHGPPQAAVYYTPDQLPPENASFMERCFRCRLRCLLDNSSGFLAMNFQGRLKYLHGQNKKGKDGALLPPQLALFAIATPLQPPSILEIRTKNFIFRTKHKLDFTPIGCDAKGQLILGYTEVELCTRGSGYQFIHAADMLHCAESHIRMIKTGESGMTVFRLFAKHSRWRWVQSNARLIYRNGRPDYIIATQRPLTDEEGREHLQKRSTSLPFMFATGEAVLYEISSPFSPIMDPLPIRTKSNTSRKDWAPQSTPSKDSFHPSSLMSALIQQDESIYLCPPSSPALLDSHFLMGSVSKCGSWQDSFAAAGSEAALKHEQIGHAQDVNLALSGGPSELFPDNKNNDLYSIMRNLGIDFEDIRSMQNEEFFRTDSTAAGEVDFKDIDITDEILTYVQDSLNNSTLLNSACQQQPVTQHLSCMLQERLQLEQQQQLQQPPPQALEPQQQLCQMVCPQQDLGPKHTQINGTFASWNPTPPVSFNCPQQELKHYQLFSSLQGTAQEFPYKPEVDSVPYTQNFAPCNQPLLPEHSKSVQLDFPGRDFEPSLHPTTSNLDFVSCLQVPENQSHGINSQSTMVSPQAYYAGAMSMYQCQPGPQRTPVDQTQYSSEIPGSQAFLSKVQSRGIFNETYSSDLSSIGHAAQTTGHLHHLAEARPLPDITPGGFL
Procedure: Examples were tested in selected biological assays one or more times. When tested more than once, data are reported as either average values or as median values, wherein • the average value, also referred to as the arithmetic mean value, represents the sum of the values obtained divided by the number of times tested, and • the median value represents the middle number of the group of values when ranked in ascending or descending order. If the number of values in the data set is odd, the median is the middle value. If the number of values in the data set is even, the median is the arithmetic mean of the two middle values.
In addition the cells were stably transfected with an AHR inducible firefly luciferase reporter gene construct that carried AHR-binding sites (DRE) in its promoter. Kynurenic acid is an endogenous AHR activating ligand and was used to prestimulate test cells prior to testing the antagonistic properties of compounds.
As positive inhibition control cells without addition of kynurenic acid were incubated. Normalization was done by positive and negative controls.
Firefly luciferase activity was determined by the SteadyGlo Luciferase Assay System (Promega, #E2550).

SMILES	IC50
C[C@@H](Nc1nc2ccccc2c2nc(-c3ccccc3OC(F)(F)F)nn12)C(=O)NCCN(C)C [Example 792, N-[2-(dimethylamino)ethyl]-N^2-{2-[2-(trifluoromethoxy)phenyl][1,2,4]triazolo[1,5-c]quinazolin-5-yl}-D-alaninamide]	28.7 nM
C[C@@H](Nc1nc2c(Br)cccc2c2nc(-c3cnn(C)c3)nn12)C(=O)NCCCN(C)C [Example 810, N^2-[7-bromo-2-(1-methyl-1H-pyrazol-4-yl)[1,2,4]triazolo[1,5-c]quinazolin-5-yl]-N-[3-(dimethylamino)propyl]-D-alaninamide]	771 nM
O=C1NCCCC[C@H]1Nc1nc2c(Br)cccc2c2nc(-c3cnn(C(F)F)c3)nn12 [Example 827, (3R)-3-({7-bromo-2-[1-(difluoromethyl)-1H-pyrazol-4-yl][1,2,4]triazolo[1,5-c]quinazolin-5-yl}amino)azepan-2-one]	0.409 nM
COc1ccc(-c2nc3c4cccc(N(C)C)c4nc(N[C@@H]4CCCCNC4=O)n3n2)cc1 [Example 829, (3R)-3-{[7-(dimethylamino)-2-(4-methoxyphenyl)[1,2,4]triazolo[1,5-c]quinazolin-5-yl]amino}azepan-2-one]	46.8 nM
O=C1NCCCC[C@H]1Nc1nc2c(Br)cccc2c2nc(-c3ccc(Cl)cc3)nn12 [Example 830, (3R)-3-{[7-bromo-2-(4-chlorophenyl)[1,2,4]triazolo[1,5-c]quinazolin-5-yl]amino}azepan-2-one]	> 20000 nM
O=C1NCCNC[C@@H]1Nc1nc2c(Cl)cccc2c2nc(-c3ccc(F)cc3)nn12 [Example 964, (6S)-6-{[7-chloro-2-(4-fluorophenyl)[1,2,4]triazolo[1,5-c]quinazolin-5-yl]amino}-1,4-diazepan-5-one]	4.6 nM
O=C1NCCNC[C@@H]1Nc1nc2ccccc2c2nc(-c3ccc(F)cc3)nn12 [Example 965, (6S)-6-{[2-(4-fluorophenyl)[1,2,4]triazolo[1,5-c]quinazolin-5-yl]amino}-1,4-diazepan-5-one]	12 nM
COc1ccc(-c2nc3c4cccc(C)c4nc(N[C@H]4CNCCNC4=O)n3n2)cc1 [Example 970, (6S)-6-{[2-(4-methoxyphenyl)-7-methyl[1,2,4]triazolo[1,5-c]quinazolin-5-yl]amino}-1,4-diazepan-5-one]	52.9 nM
O=C1NCCNC[C@@H]1Nc1nc2c(Br)cccc2c2nc(-c3ccc(F)cc3)nn12 [Example 973, (6S)-6-{[7-bromo-2-(4-fluorophenyl)[1,2,4]triazolo[1,5-c]quinazolin-5-yl]amino}-1,4-diazepan-5-one]	8.28 nM
O=C1NCCNC[C@H]1Nc1nc2c(Br)cccc2c2nc(-c3ccc(Cl)cc3)nn12 [Example 977, (6R)-6-{[7-bromo-2-(4-chlorophenyl)[1,2,4]triazolo[1,5-c]quinazolin-5-yl]amino}-1,4-diazepan-5-one]	0.41 nM

same assay, conditions: mouse Hepa 1c1c7 cells, 200 μM kynurenic acid, 20 hours, read-out: AHR Antagonism Mouse IC50

SMILES	IC50
CCCC[C@H](Nc1nc2ccccc2c2nc(-c3ccccc3OC(F)(F)F)nn12)C(N)=O [Example 467, N^2-{2-[2-(trifluoromethoxy)phenyl][1,2,4]triazolo[1,5-c]quinazolin-5-yl}norleucinamide]	32.8 nM
O=C1NCCCC[C@H]1Nc1nc2ccccc2c2nc(-c3cc(Cl)ccc3OC(F)(F)F)nn12 [Example 497, (3R)-3-({2-[5-chloro-2-(trifluoromethoxy)phenyl][1,2,4]triazolo[1,5-c]quinazolin-5-yl}amino)azepan-2-one]	57.1 nM
CCCNC(=O)[C@@H](C)Nc1nc2ccccc2c2nc(-c3cc(Cl)ccc3OC(F)(F)F)nn12 [Example 502, N^2-{2-[5-chloro-2-(trifluoromethoxy)phenyl][1,2,4]triazolo[1,5-c]quinazolin-5-yl}-N-propyl-D-alaninamide]	196 nM
O=C1NCCC[C@H]1Nc1nc2ccccc2c2nc(-c3ccc(Cl)cc3OC(F)F)nn12 [Example 527, (3R)-3-({2-[4-chloro-2-(difluoromethoxy)phenyl][1,2,4]triazolo[1,5-c]quinazolin-5-yl}amino)piperidin-2-one]	5.53 nM
CC[C@H](Nc1nc2ccccc2c2nc(-c3ccc(Cl)cc3OC(F)F)nn12)C(N)=O [Example 532, (2S)-2-({2-[4-chloro-2-(difluoromethoxy)phenyl][1,2,4]triazolo[1,5-c]quinazolin-5-yl}amino)butanamide]	10.6 nM
COc1ccc(-c2nc3c4cc(C(F)(F)F)ccc4nc(N[C@@H]4CCCCNC4=O)n3n2)cc1 [Example 545, (3R)-3-{[2-(4-methoxyphenyl)-9-(trifluoromethyl)[1,2,4]triazolo[1 ,5-c]quinazolin-5-yl]amino}azepan-2-one]	> 20000 nM
COc1ccc(-c2nc3c4cccc(Cl)c4nc(N[C@@H]4CCCCNC4=O)n3n2)cc1 [Example 553, (3R)-3-{[7-chloro-2-(4-methoxyphenyl)[1,2,4]triazolo[1,5-c]quinazolin-5-yl]amino}azepan-2-one]	1.18 nM
COc1ccc(-c2nc3c4cccc(C(F)(F)F)c4nc(N[C@H]4CCCCNC4=O)n3n2)cc1 [Example 582, (3S)-3-{[2-(4-methoxyphenyl)-7-(trifluoromethyl)[1,2,4]triazolo[1,5-c]quinazolin-5-yl]amino}azepan-2-one]	44.1 nM
O=C1NCCCC[C@H]1Nc1nc2c(Br)cc(Br)cc2c2nc(-c3ccc(F)cc3)nn12 [Example 591, (3R)-3-{[7,9-dibromo-2-(4-fluorophenyl)[1,2,4]triazolo[1,5-c]quinazolin-5-yl]amino}azepan-2-one]	2420 nM
COc1ccc(-c2nc3c4cc(Br)cc(Br)c4nc(N[C@@H]4CCCCNC4=O)n3n2)cc1 [Example 593, (3R)-3-{[7,9-dibromo-2-(4-methoxyphenyl)[1,2,4]triazolo[1,5-c]quinazolin-5-yl]amino}azepan-2-one]	82.1 nM
O=C1NCCCC[C@H]1Nc1nc2ccccc2c2nc(-c3ccc(F)nc3)nn12 [Example 639, (3R)-3-{[2-(6-fluoropyridin-3-yl)[1,2,4]triazolo[1,5-c]quinazolin-5-yl]amino}azepan-2-one]	0.927 nM
COc1ccc(-c2nc3c4ccccc4nc(N[C@@H]4CN(C)CCNC4=O)n3n2)cc1 [Example 656, (6R)-6-{[2-(4-methoxyphenyl)[1,2,4]triazolo[1,5-c]quinazolin-5-yl]amino}-1-methyl-1,4-diazepan-5-one]	30.1 nM
COc1ccc(-c2nc3c4ccccc4nc(N[C@H](C)C(=O)O)n3n2)cc1 [Example 658, N-[2-(4-methoxyphenyl)[1,2,4]triazolo[1,5-c]quinazolin-5-yl]-D-alanine]	450 nM
N#Cc1ccc(-c2nc3c4cccc(C(F)(F)F)c4nc(N[C@@H]4CCCCNC4=O)n3n2)cc1 [Example 671, 4-[5-{[(3R)-2-oxoazepan-3-yl]amino}-7-(trifluoromethyl)[1,2,4]triazolo[1,5-c]quinazolin-2-yl]benzonitrile]	0.744 nM
O=C1NCCCC[C@H]1Nc1nc2c(C(F)(F)F)cccc2c2nc(-c3ccc(Cl)cc3OC(F)(F)F)nn12 [Example 672, (3R)-3-({2-[4-chloro-2-(trifluoromethoxy)phenyl]-7-(trifluoromethyl)[1,2,4]triazolo[1,5-c]quinazolin-5-yl}amino)azepan-2-one]	4.35 nM

same assay, conditions: read-out: AHR Antagonism Mouse IC50, Hepa 1c1c7 cells, 200 μM kynurenic acid, 20 hours, firefly luciferase reporter

SMILES	IC50
C[C@@H](Nc1nc2ccccc2c2nc(-c3ccccc3OC(F)(F)F)nn12)C(=O)NCCN(C)C [Example 791, formic acid-N-[2-(dimethylamino)ethyl]-N^2-{2-[2-(trifluoromethoxy)phenyl][1,2,4]triazolo[1,5-c]quinazolin-5-yl}-D-alaninamide (1/1)]	264 nM
